Target: T1, ERα (Homo sapiens, UniProt P03372)
T1 construct: host or cells: MCF7
T1 sequence (P03372 1-595): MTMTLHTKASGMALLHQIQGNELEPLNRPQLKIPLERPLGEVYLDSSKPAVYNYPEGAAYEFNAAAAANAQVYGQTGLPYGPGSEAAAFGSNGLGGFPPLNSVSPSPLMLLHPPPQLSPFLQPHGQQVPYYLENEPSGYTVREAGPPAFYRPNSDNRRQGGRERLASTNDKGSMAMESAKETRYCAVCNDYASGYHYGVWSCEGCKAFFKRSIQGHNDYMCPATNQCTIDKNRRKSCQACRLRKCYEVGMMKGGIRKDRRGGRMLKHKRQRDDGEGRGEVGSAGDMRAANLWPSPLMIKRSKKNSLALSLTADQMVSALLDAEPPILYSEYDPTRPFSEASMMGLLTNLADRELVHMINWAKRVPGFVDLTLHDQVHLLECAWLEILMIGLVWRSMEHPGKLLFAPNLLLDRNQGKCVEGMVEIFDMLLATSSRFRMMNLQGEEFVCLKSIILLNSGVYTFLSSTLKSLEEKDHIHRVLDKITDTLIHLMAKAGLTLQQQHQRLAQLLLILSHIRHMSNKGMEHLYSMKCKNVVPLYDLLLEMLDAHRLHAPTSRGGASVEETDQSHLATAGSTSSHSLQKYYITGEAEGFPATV
Assay: Estrogen receptor degradation activity: breast cancer cell ERα in cell western assay (MCF7 cells)
Format: cell-based
Details: for % Degradation At 0.3 μM: 4 hours, relative to fulvestrant 0.1 μM positive control; for DC50: 4 hours post compound addition, concentration which degrades 50% of the estrogen receptor, read-out: Degradation IC50
Experimental: Test: Estrogen Receptor Degradation Activity Said test involves measuring the in vitro degradation activity of the compounds of the Table 1a. The measurements of the degradation activities were made using a breast cancer cell ERα in cell western assay as described hereunder. MCF7 cells (ATCC) were seeded in 384 wells microplate (collagen coated) at a concentration of 10000 cells/30 μL per well in red phenol free MEM alpha medium (invitrogen) containing 5% charcoal dextran striped FBS. The following day, 9 points serial 1:5 dilution of each compound was added to the cells in 2.5 μL at final concentrations ranging from […] (in table 2), or 0.1 μM for fulvestrant (using as positive control). At 4 hours post compound addition the cells were fixed by adding 25 μL of formalin (final concentration 5% formalin containing 0.1% triton) for 10 minutes at room temperature and then washed twice with PBS. Then, 50 μL of LI-COR blocking buffer containing 0.1% Triton was added to plate for 30 minutes at room temperature. LI-COR blocking buffer was removed and cells were incubated overnight at cold room with 50 μL anti-ER rabbit monoclonal antibody (Thermo scientific MA1-39540) diluted at 1:1000 in LI-COR blocking buffer containing 0.1% tween-20. Wells which were treated with blocking buffer but no antibody were used as background control. Wells were washed twice with PBS (0.1% tween-20) and incubated at 37° C. for 60 minutes in LI-COR (0.1% tween-20) containing goat anti-rabbit antibody Alexa 488 (1:1000) and Syto-64 a DNA dye (2 μM final concentration). Cells were then washed 3 times in PBS and scanned in ACUMEN explorer (TTP-Labtech). Integrated intensities in the green fluorescence and red fluorescence were measured to determine the levels of ERα and DNA respectively. The degradation activity with respect to estrogen receptors in this test is given by the concentration which degrades 50% of the estrogen receptor (or IC50) in nM. […] DMSO−fulvestrant)).

Structure (SMILES) | % Degradation At 0.3 μM | DC50
CC1CCC(C2=C(c3ncc(C=C4CN(CCCF)C4)cc3F)c3ccc(C(=O)O)cc3CCC2)CC1 (mixture of isomers) [Example 188, 9-(3-fluoro-5-((1-(3-fluoropropyl)azetidin-3-ylidene)methyl)pyridin-2-yl)-8-(4-methylcyclohexyl)-6,7-dihydro-5H-benzo[7]annulene-3-carboxylic acid] | 89% | 1.8 nM
CC1CCc2cc(C(=O)O)ccc2C(c2ccc(C=C3CN(CCCF)C3)cc2)=C1c1ccc(Cl)cc1Cl (racemic) [Example 166, 8-(2,4-Dichlorophenyl)-9-(4-((1-(3-fluoropropyl)azetidin-3-ylidene)methyl)phenyl)-7-methyl-6,7-dihydro-5H-benzo[7]annulene-3-carboxylic acid, racemic mixture] | 95% | 0.6 nM
O=C(O)c1ccc2c(c1)CCCC([C@H]1C[C@@H]1c1ccccc1)=C2c1ccc(C=C2CN(CCCF)C2)cc1 (racemic) [Example 173, 9-(4-((1-(3-fluoropropyl)azetidin-3-ylidene)methyl)phenyl)-8-((trans)-2-phenylcyclopropyl)-6,7-dihydro-5H-benzo[7]annulene-3-carboxylic acid] | 90% | 0.7 nM
CC1(C)CCCC(C2=C(c3ncc(C=C4CN(CCCF)C4)cc3F)c3ccc(C(=O)O)cc3CCC2)C1 (racemic) [Example 186, 8-(3,3-Dimethylcyclohexyl)-9-(3-fluoro-5-((1-(3-fluoropropyl)azetidin-3-ylidene)methyl)pyridin-2-yl)-6,7-dihydro-5H-benzo[7]annulene-3-carboxylic acid, racemic mixture] | 92% | 1 nM
O=C(O)c1ccc2c(c1)CCCC([C@@H]1C[C@H]1C1CCC(F)(F)CC1)=C2c1ccc(C=C2CN(CCCF)C2)cc1 (racemic) [Example 187, 8-(trans-2-(4,4-difluorocyclohexyl)cyclopropyl)-9-(4-((1-(3-fluoropropyl)azetidin-3-ylidene)methyl)phenyl)-6,7-dihydro-5H-benzo[7]annulene-3-carboxylic acid] | 86% | 1.6 nM
CC1(C)CCCC(C2=C(c3ccc(C=C4CN(CCCF)C4)cc3)c3ccc(C(=O)O)cc3CCC2)C1 (single isomer, unassigned) [Example 171, 8-(3,3-dimethylcyclohexyl)-9-(4-((1-(3-fluoropropyl)azetidin-3-ylidene)methyl)phenyl)-6,7-dihydro-5H-benzo[7]annulene-3-carboxylic acid] | 88% | 0.4 nM
CC1(C)CCCC(C2=C(c3ccc(C=C4CN(CCCF)C4)cc3)c3ccc(C(=O)O)cc3CCC2)C1 (single isomer, unassigned) [Example 172, 8-(3,3-dimethylcyclohexyl)-9-(4-((1-(3-fluoropropyl)azetidin-3-ylidene)methyl)phenyl)-6,7-dihydro-5H-benzo[7]annulene-3-carboxylic acid] | 89% | 0.4 nM
CC1CCc2cc(C(=O)O)ccc2C(c2ccc(C=C3CN(CCCF)C3)cc2)=C1c1ccc(Cl)cc1 (single isomer, unassigned) [Example 179, 8-(4-chlorophenyl)-9-(4-((1-(3-fluoropropyl)azetidin-3-ylidene)methyl)phenyl)-7-methyl-6,7-dihydro-5H-benzo[7]annulene-3-carboxylic acid] | 91% | 1.4 nM
CC1CCc2cc(C(=O)O)ccc2C(c2ccc(C=C3CN(CCCF)C3)cc2)=C1c1ccc(Cl)cc1 (single isomer, unassigned) [Example 184, 8-(4-chlorophenyl)-9-(4-((1-(3-fluoropropyl)azetidin-3-ylidene)methyl)phenyl)-7-methyl-6,7-dihydro-5H-benzo[7]annulene-3-carboxylic acid] | 90% | 0.4 nM

— patent US12612360B2 (Sanofi, priority 2020, dated 2026)
